# Data from patent CN104710358A, “喹啉-4-甲酰胺衍生物及其医药用途” (Chengdu Military General Hospital of PLA, priority 2015, dated 2015).
# Test system: PTSD rat conditioned fear response [束缚应激致PTSD大鼠条件恐惧反应]
# Assay: Conditioned fear response in restraint-stress-induced PTSD rats (freezing after foot shock)
# Assay type: in vivo
# Settings: dose not given, Fig. 1
smiles,measurement,setting,value
"Cc1ccc(Cl)cc1N1CCN(CCCNC(=O)c2ccnc3ccccc23)CC1 [化合物1, N-{3-[4-(5-氯-2-甲基苯基)哌嗪基]丙基}-喹啉-4-甲酰胺, 盐酸乙醚成盐]",percentage of freezing time,"PTSD group, before versus after drug administration, 5 min test in shock box (CS+) without current",显著降低
same,inhibition of PTSD conditioned fear response,PTSD rats,显著抑制PTSD条件性恐惧反应
same,anxiety level of PTSD rats,"PTSD rats, inferred from the conditioned fear test",降低PTSD大鼠的焦虑水平
